Experiments:
[1] = test system: Cfb expression in neonatal cardiomyocytes; assay: LPS-induced Cfb expression in cultured neonatal cardiomyocytes (qRT-PCR); format: cell-based, mouse
Procedure: (§1) All animal experiments were done in compliance with the “Guiding Principles for the Care and Use of Laboratory Animals.” Mouse neonatal cardiac myocytes were isolated from 1 to 3-day-old newborn B6D2/F1 mice according to an established protocol. Hearts were dissected and incubated with F-10 nutrient medium, containing 140 μg/ml of collagenase type-2 (Sigma) and 440 μg/ml pancreatin (Sigma) until cells were dissociated. The cells were then washed, resuspended in 1:1 mix of Dulbecco's minimal Eagle's medium (DMEM) and F10 nutrient mix with 5% each of equine and bovine calf serum. These cells were pre-plated in tissue culture dishes for 1 h to allow for attachment of nonmyocytes. The resulting non-adherent myocytes were plated on fibronectin-coated (Sigma) tissue culture dishes. […]
(§2) Total RNA was isolated from mouse heart, liver, isolated adult cardiomyocytes, or cultured neonatal cardiomyocytes using Qiagen RNA isolation kit. RNA samples were quantified by determining A260 in capillary cuvettes (Gene Machine, Pharmacia). […]
(§3) For SYBR Green quantitative real-time PCR, 1 μl of reverse transcription reaction was mixed with 10 pmoles each specific primer and 12.5 μl SYBR PCR Master Mix (BioRad). […] The threshold cycle (CT) was determined by the icycler software, and quantification of relative mRNA levels was performed by ΔΔCT method.

[2] = test system: Cfb expression in neonatal cardiomyocytes; assay: TNFα-induced Cfb expression in cultured neonatal cardiomyocytes (qRT-PCR); format: cell-based, mouse; conditions: RNA after 12 h
Procedure: as §1, §2, §3

[3] = test system: CFB protein in infarcted hearts; assay: CFB protein in hearts after myocardial infarction (immunoblotting); format: in vivo, mouse; conditions: one week following MI; transgenic hearts compared to WT
Procedure: (§4) Mouse hearts were infarcted by opening the thoracic cavity and placing a ligature on the left descending coronary artery, as described (3). Both male and female mice were infracted, and three-week post-infarction, RNA was isolated from cardiac tissue using RNeasy kit (Qiagen). Hearts were harvested one week after MI surgery for protein studies. Gene expression profiles of pooled RNA from at least five hearts of each gender were determined from cDNA microarrays containing 8600 elements derived from clones isolated from normalized cDNA libraries or purchased from ResGen (Invitrogen) as described previously (52). Differential expression values were calculated as the ratio of the median of background-subtracted fluorescent intensity of the experimental RNA to the median of background-subtracted fluorescent intensity of the control RNA. […] For the analyses, the results from both genders were compiled.
Tissue samples were homogenized in modified RIPA buffer (50 mM Hepes, pH 7.5; 150 mM NaCl; 5 mM EDTA; 1% v/v NP-40 and 0.5% w/v deoxycholate) containing mixture of protease and phosphatase inhibitors. […] Protein bands were detected using ECL reagent (Lumi-Light, Roche), and loading was routinely monitored by Coomassie staining of the blots after antibody probing. For quantification, QuantityOne software (BioRad) was used.

[4] = test system: gene expression in infarcted hearts; assay: cDNA microarray of infarcted hearts (CaMKII-regulated genes); format: in vivo, mouse; conditions: three weeks after MI; compared to infarcted AC3-C hearts; 8,600 genes on array
Procedure: as §4

[5] = neonatal cardiomyocytes from transgenic mice, compared to WT cells

Row | Molecule | induction of Cfb mRNA by LPS ([1]; WT neonatal cardiomyocytes, water-soluble KN-93 (2.5 μM) added an hour prior to LPS 10 μg/ml, RNA after 12 h) | induction of Cfb expression by TNFα ([2]; neonatal cardiomyocytes, TNFα (100 pg/ml) with water-soluble KN-93 (2.5 μM)) | induction of Cfb mRNA by LPS in cardiomyocytes expressing the peptide [1, 5] | induction of Cfb by TNFα in cardiomyocytes expressing the peptide [2, 5] | CFB protein in heart after MI [3] | number of genes with reduced expression in infarcted hearts [4]
1 | COc1ccc(S(=O)(=O)N(CCO)c2ccccc2CN(C)CC=Cc2ccc(Cl)cc2)cc1 [KN-93] | significantly (P<0.001) attenuated induction of Cfb mRNA | significantly blunted | – | – | – | –
2 | AC3-I: CaMKII-inhibitory peptide of SEQ ID NO:16, transgenically expressed in cardiomyocytes (KKALHRQEAVDCL) | – | – | strong attenuation of Cfb induction | significantly lower | Significantly reduced CFB protein | 88 genes
